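Dose response: 5 concentrations. Exposure: 48 h. Format: 96-well plates. Endpoint: linear interpolation; highest concentration if not reached. GI50 = concentration required for 50% inhibition of growth. At the TGI there is no net growth.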
Key:
Assay in all cases: NCI-60 cell line screen, 48 h
[1] = test system: 786-0 renal
[2] = test system: A498 renal
[3] = test system: A549 NSCLC
[4] = test system: ACHN renal
[5] = test system: BT-549 breast
[6] = test system: CCRF-CEM leukemia
[7] = test system: COLO 205 colon
[8] = test system: DU-145 prostate
[9] = test system: EKVX NSCLC
[10] = test system: HCC-2998 colon
[11] = test system: HCT-116 colon
[12] = test system: HCT-15 colon
[13] = test system: HL-60(TB) leukemia
[14] = test system: HOP-62 NSCLC
[15] = test system: HOP-92 NSCLC
[16] = test system: HS 578T breast
[17] = test system: HT29 colon
[18] = test system: IGROV1 ovarian
[19] = test system: KM12 colon
[20] = test system: LOX IMVI melanoma
[21] = test system: M14 melanoma
[22] = test system: MALME-3M melanoma
[23] = test system: MCF7 breast
[24] = test system: MDA-MB-231 breast
[25] = test system: MDA-MB-435
[26] = test system: MOLT-4 leukemia
[27] = test system: NCI-H226 lung
[28] = test system: NCI-H23 lung
[29] = test system: NCI-H460 lung
[30] = test system: NCI-H522 lung
[31] = test system: NCI/ADR-RES ovarian
[32] = test system: OVCAR-3 ovarian
[33] = test system: OVCAR-4 ovarian
[34] = test system: OVCAR-5 ovarian
[35] = test system: OVCAR-8 ovarian
[36] = test system: PC-3 prostate
[37] = test system: RPMI-8226 leukemia
[38] = test system: RXF 393 renal
[39] = test system: SF-268 CNS
[40] = test system: SF-295 CNS
[41] = test system: SF-539 CNS
[42] = test system: SK-MEL-2 melanoma
[43] = test system: SK-MEL-28 melanoma
[44] = test system: SK-MEL-5 melanoma
[45] = test system: SK-OV-3 ovarian
[46] = test system: SN12C renal
[47] = test system: SNB-19 CNS
[48] = test system: SNB-75 CNS
[49] = test system: SR leukemia
[50] = test system: SW-620 colon
[51] = test system: T-47D breast
[52] = test system: TK-10 renal
[53] = test system: U251 CNS
[54] = test system: UACC-257 melanoma
[55] = test system: UACC-62 melanoma
[56] = test system: UO-31 renal
[57] = test system: CAKI-1 renal
[58] = test system: K-562 leukemia

`COc1cc(C(=O)/C=C/c2cccnc2Nc2ccccc2)cc(OC)c1OC` gave a GI50 [1] of 1290 nM, a TGI [1] of 2650 nM and a GI50 [2] of 1420 nM. It also gave a TGI [2] of 2750 nM, a GI50 [3] of 1300 nM and a TGI [3] of 2860 nM. The GI50 [4] was 1280 nM, the TGI [4] was 2570 nM and the GI50 [5] was 1260 nM. It also gave a TGI [5] of 2540 nM, a GI50 [6] of 321 nM and a TGI [6] of 1190 nM. For the same molecule, the GI50 [7] was 1290 nM, the TGI [7] was 2620 nM and the GI50 [8] was 723 nM. The TGI [8] was 1940 nM, the GI50 [9] was 1610 nM and the TGI [9] was 3040 nM. It also gave a GI50 [10] of 1180 nM, a TGI [10] of 2460 nM and a GI50 [11] of 337 nM. For the same molecule, the TGI [11] was 1310 nM, the GI50 [12] was 744 nM and the TGI [12] was 2400 nM. For the same molecule, the GI50 [13] was 1520 nM, the TGI [13] was 4980 nM and the GI50 [14] was 657 nM. It also gave a TGI [14] of 1880 nM, a GI50 [15] of 392 nM and a TGI [15] of 2070 nM. It also gave a GI50 [16] of 2150 nM, a TGI [16] of 7930 nM and a GI50 [17] of 514 nM. It also gave a TGI [17] of 2150 nM, a GI50 [18] of 2370 nM and a TGI [18] of 5300 nM. It also gave a GI50 [19] of 929 nM, a TGI [19] of 2540 nM and a GI50 [20] of 499 nM. For the same molecule, the TGI [20] was 1820 nM, the GI50 [21] was 1500 nM and the TGI [21] was 2920 nM. It also gave a GI50 [22] of 1920 nM, a TGI [22] of 3840 nM and a GI50 [23] of 357 nM. For the same molecule, the TGI [23] was 1640 nM, the GI50 [24] was 1400 nM and the TGI [24] was 3090 nM. It also gave a GI50 [25] of 637 nM, a TGI [25] of 2080 nM and a GI50 [26] of 2680 nM. The TGI [26] was 19500 nM, the GI50 [27] was 1230 nM and the TGI [27] was 2580 nM. For the same molecule, the GI50 [28] was 1430 nM, the TGI [28] was 3000 nM and the GI50 [29] was 1800 nM. For the same molecule, the TGI [29] was 3630 nM, the GI50 [30] was 493 nM and the TGI [30] was 1760 nM. It also gave a GI50 [31] of 1030 nM, a TGI [31] of 4560 nM and a GI50 [32] of 429 nM. It also gave a TGI [32] of 1480 nM, a GI50 [33] of 1450 nM and a TGI [33] of 2760 nM. The GI50 [34] was 1540 nM, the TGI [34] was 3110 nM and the GI50 [35] was 1270 nM. For the same molecule, the TGI [35] was 3490 nM, the GI50 [36] was 1100 nM and the TGI [36] was 3180 nM. It also gave a GI50 [37] of 349 nM, a TGI [37] of 2050 nM and a GI50 [38] of 1120 nM. It also gave a TGI [38] of 2370 nM, a GI50 [39] of 1550 nM and a TGI [39] of 3090 nM. For the same molecule, the GI50 [40] was 1870 nM, the TGI [40] was 3780 nM and the GI50 [41] was 1650 nM. It also gave a TGI [41] of 3120 nM, a GI50 [42] of 1660 nM and a TGI [42] of 3400 nM. It also gave a GI50 [43] of 1580 nM, a TGI [43] of 2930 nM and a GI50 [44] of 1340 nM. The TGI [44] was 2640 nM, the GI50 [45] was 1600 nM and the TGI [45] was 2940 nM. For the same molecule, the GI50 [46] was 1210 nM, the TGI [46] was 2550 nM and the GI50 [47] was 1480 nM. It also gave a TGI [47] of 2860 nM, a GI50 [48] of 1130 nM and a TGI [48] of 2340 nM. The GI50 [49] was 346 nM, the TGI [49] was > 100000 nM and the GI50 [50] was 422 nM. The TGI [50] was 1660 nM, the GI50 [51] was 1430 nM and the TGI [51] was 3070 nM. It also gave a GI50 [52] of 1820 nM, a TGI [52] of 3330 nM and a GI50 [53] of 1120 nM. It also gave a TGI [53] of 2390 nM, a GI50 [54] of 1510 nM and a TGI [54] of 2860 nM. The GI50 [55] was 1290 nM, the TGI [55] was 2600 nM and the GI50 [56] was 1190 nM. It also gave a TGI [56] of 2570 nM.

With `C=C1CCC2C3(C)COC(c4ccccc4Br)OC3CCC2(C)C1C/C=C1/C(=O)OCC1OC(C)=O` (stereo not drawn) the GI50 [1] was 1630 nM, the TGI [1] was 2980 nM and the GI50 [2] was 1600 nM. The TGI [2] was 3910 nM, the GI50 [3] was 2060 nM and the TGI [3] was 5260 nM. It also gave a GI50 [4] of 1600 nM, a TGI [4] of 2960 nM and a GI50 [5] of 1700 nM. The TGI [5] was 3710 nM, the GI50 [57] was 2400 nM and the TGI [57] was 6460 nM. For the same molecule, the GI50 [6] was 381 nM, the TGI [6] was 3960 nM and the GI50 [7] was 1660 nM. For the same molecule, the TGI [7] was 3200 nM, the GI50 [8] was 1580 nM and the TGI [8] was 2990 nM. The GI50 [9] was 2550 nM, the TGI [9] was 10100 nM and the GI50 [10] was 1730 nM. For the same molecule, the TGI [10] was 3310 nM, the GI50 [11] was 289 nM and the TGI [11] was 751 nM. It also gave a GI50 [12] of 730 nM, a TGI [12] of 2250 nM and a GI50 [13] of 708 nM. For the same molecule, the TGI [13] was 2980 nM, the GI50 [14] was 1940 nM and the TGI [14] was 3460 nM. The GI50 [15] was 1360 nM, the TGI [15] was 3020 nM and the GI50 [16] was 1890 nM. It also gave a TGI [16] of 4650 nM, a GI50 [17] of 804 nM and a TGI [17] of 2370 nM. It also gave a GI50 [18] of 1150 nM, a TGI [18] of 2480 nM and a GI50 [58] of 396 nM. The TGI [58] was 4400 nM, the GI50 [19] was 1550 nM and the TGI [19] was 3120 nM. It also gave a GI50 [20] of 422 nM, a TGI [20] of 826 nM and a GI50 [21] of 1530 nM. The TGI [21] was 2860 nM, the GI50 [22] was 1920 nM and the TGI [22] was 4120 nM. The GI50 [23] was 620 nM, the TGI [23] was 2000 nM and the GI50 [24] was 1470 nM. It also gave a TGI [24] of 3160 nM, a GI50 [25] of 1480 nM and a TGI [25] of 3500 nM. For the same molecule, the GI50 [26] was 821 nM, the TGI [26] was 2910 nM and the GI50 [27] was 1640 nM. It also gave a TGI [27] of 3420 nM, a GI50 [28] of 1590 nM and a TGI [28] of 3170 nM. The GI50 [29] was 1740 nM, the TGI [29] was 3290 nM and the GI50 [30] was 604 nM. For the same molecule, the TGI [30] was 2030 nM, the GI50 [31] was 1180 nM and the TGI [31] was 3120 nM. For the same molecule, the GI50 [32] was 932 nM, the TGI [32] was 2470 nM and the GI50 [33] was 1430 nM. The TGI [33] was 2830 nM, the GI50 [34] was 1850 nM and the TGI [34] was 3280 nM. The GI50 [35] was 584 nM, the TGI [35] was 1800 nM and the GI50 [36] was 1630 nM. For the same molecule, the TGI [36] was 3760 nM, the GI50 [37] was 645 nM and the TGI [37] was 6520 nM. The GI50 [38] was 1540 nM, the TGI [38] was 2960 nM and the GI50 [39] was 1650 nM. For the same molecule, the TGI [39] was 3010 nM, the GI50 [40] was 1820 nM and the TGI [40] was 4570 nM. For the same molecule, the GI50 [41] was 1530 nM, the TGI [41] was 2860 nM and the GI50 [42] was 1720 nM. The TGI [42] was 3400 nM, the GI50 [43] was 1760 nM and the TGI [43] was 3150 nM. The GI50 [44] was 1600 nM, the TGI [44] was 2980 nM and the GI50 [45] was 2850 nM. It also gave a TGI [45] of 6780 nM, a GI50 [46] of 1360 nM and a TGI [46] of 3280 nM. The GI50 [47] was 2250 nM, the TGI [47] was 5850 nM and the GI50 [48] was 1170 nM. The TGI [48] was 2460 nM, the GI50 [49] was 215 nM and the TGI [49] was 706 nM. For the same molecule, the GI50 [50] was 402 nM, the TGI [50] was 1300 nM and the GI50 [51] was 1080 nM. The TGI [51] was 2770 nM, the GI50 [52] was 1910 nM and the TGI [52] was 3670 nM. For the same molecule, the GI50 [53] was 1220 nM, the TGI [53] was 2460 nM and the GI50 [54] was 1570 nM. For the same molecule, the TGI [54] was 2990 nM, the GI50 [55] was 1420 nM and the TGI [55] was 2860 nM. The GI50 [56] was 1340 nM and the TGI [56] was 2720 nM.

Reference: PubChem BioAssay (NCI)
